# How the values were obtained:
# [1] = system: Ptenpc−/−p53pc−/−Smad4pc−/− mice; assay: Ptenpc−/−p53pc−/−Smad4pc−/− mouse model of castration resistant prostate cancer; type: in vivo; details: 4-6 weeks
# Procedure: The genetically engineered Ptenpc−/−p53pc−/−Smad4pc−/− mouse is a prostate-specific PB promoter-driven (PB-Cre4) conditional triple knockout model (i.e., prostate-specific deletion of all three tumor suppressors, Pten, p53 and Smad4 occurs in the ‘prostate cancer’ or ‘pc’). […] SX-682 was used as a spray dried dispersion (Formulation Example 1), and was administered to mice via oral gavage as a suspension in 0.5% aq. methylcellulose. Treatment was continued for 4-6 weeks and prostate weights measured to determine tumor burden. […] Mean+SE.
# [2] = system: LLC syngeneic mouse model of lung cancer; assay: LLC syngeneic mouse model of lung cancer; type: in vivo
# Procedure: The Lewis lung carcinoma (LLC) mouse model (Kellar, 2015, Biomed Res Int, 2015:621324, herein incorporated by reference) was used to evaluate the effect of SX-682 alone and in combination with anti-PD-1 antibody. LLC mouse […] cells were cultured, then mice were injected with 0.5×10^6 LLC cells on day 0, and on day 18 treatment was initiated. Mice were treated with vehicle (control), SX-682 alone (50 mg/kg twice daily, oral), anti-PD-1 alone (100 μg twice weekly, i.p.), or SX-682 in combination with anti-PD-1 (N=5 per cohort). SX-682 was used as a spray dried dispersion (Formulation Example 1), and was administered to mice via oral gavage as a suspension in 0.5% aq. methylcellulose.
# [3] = molecular target: T1, CXCR2 (Homo sapiens, UniProt P25025); assay: Wash-resistant inhibition of CXCL8-mediated calcium flux, CXCR2-transfected RBL cells; type: cell-based; details: 30 min incubation at 0.4, 2, 10 μM, then washout
# T1 construct: expressed in transfected cells
# T1 sequence (P25025 1-360): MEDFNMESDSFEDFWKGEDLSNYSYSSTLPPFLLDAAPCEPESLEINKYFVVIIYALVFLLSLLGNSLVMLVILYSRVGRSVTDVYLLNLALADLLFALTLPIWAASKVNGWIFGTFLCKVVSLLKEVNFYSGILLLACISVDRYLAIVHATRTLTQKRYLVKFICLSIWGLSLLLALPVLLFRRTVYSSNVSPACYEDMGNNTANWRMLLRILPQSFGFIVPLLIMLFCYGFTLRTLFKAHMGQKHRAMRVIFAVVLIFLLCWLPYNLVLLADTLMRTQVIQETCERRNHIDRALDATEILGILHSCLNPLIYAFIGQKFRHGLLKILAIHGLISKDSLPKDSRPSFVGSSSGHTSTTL
# Procedure: In order to test this hypothesis, RBL cells (10^7 cells/ml) stably transfected with either CXCR1 or CXCR2 were (1) incubated with SX-682 at various concentrations for 30 minutes at 37° C., (2) washed and resuspended in assay buffer (RPMI/2% serum) at room temperature, and (3) assayed for CXCL8-mediated calcium response at time points up to 12 h after inhibitor washout. The concentrations of SX-682 tested were 0 (positive control), 0 (negative control), 0.4, 2, and 10 μM. At 30 minutes before each time point, a 56.25 μl aliquot of the cells were removed and loaded for 30 minutes at room temperature in the dark with FLIPR™ 3 reagent (262.5 μl per tube). Following FLIPR™ 3 incubation, cells were assayed for CXCL8 mediated intracellular calcium release as described in Pharmacology Example 1.
# [4] = system: T11 mouse model of breast cancer; assay: T11 mouse model of breast cancer; type: in vivo
# Description: The T11 model is a validated mouse model of breast cancer, which derives from the serial orthotopic transplantation of a murine breast tumor derived from a p53-null mouse into a syngeneic p53 competent recipient, and features sporadic, somatic K-Ras mutation (Herschkowitz, 2012, Proc Natl Acad Sci, 109:2778-83, herein incorporated by reference). Tumors from the T11 model display an RNA expression pattern characteristic of the human claudin-low disease, and are extremely aggressive, with the majority of untreated animals surviving less than 21 days from the time of enrollment in the therapy studies. Treatment regimens were started following tumor manifestation. SX-682 was given orally via medicated feed, at an approximate dose of 10 mg/day/mouse. In brief, the medicated feed was prepared by Research Diets (New Brunswick, N.J.) by incorporating 15.2 grams of SX-682 spray dried dispersion (as prepared in Formulation Example 1) into 1042 grams of standard rodent diet with 10% kcals from fat. The medicated feed was formed into pellets. Carboplatin (CP) was administered once weekly via intraperitoneal injection at a dose of 50 mg/kg. […] Mean±SE. *** P<0.0001 (linear regression).
# [5] = system: MDSCs; assay: GROα-mediated MDSC migration; type: cell-based, mouse; details: 0.1, 1 and 10 μM, 100 ng/ml GROα, 12 hours
# Procedure: Using the of method of Katoh 2013 to induce and isolate MDSCs, male BALBc mice were given a single intraperitoneal injection of azoxymethane (AOM, 10 mg/kg). Seven days later, these mice were given 4 cycles of water and water containing 1.25% dextran sulfate sodium (DSS). One cycle consisted of providing mice with regular drinking water for 7 days, followed by 1.25% aqueous DSS for 7 days, followed by regular drinking water for 7 days. MDSCs were isolated from femurs and blood of AOM/DSS-treated BALBc mice using the Myeloid-Derived Suppressor Cell Isolation Kit (Miltenyi Biotec) after lysis of red blood cells (RBC) according to the manufacturer's instructions. GROα (CXCL1) was placed in the bottom chamber of a 24-well plate at a concentration of 100 ng/ml. MDSCs isolated from blood of AOM/DSS-treated BALBc mice were seeded at a density of 1×10^6/well in the upper chamber (3 m, BD Falcon). After incubation for 12 hours, migrated cells were quantified by flow cytometry using COUNTBRIGHT™ Absolute Counting Beads (Molecular Probes). To evaluate the effect of SX-682 on GROα-mediated MDSC migration, aqueous DMSO solutions of SX-682 were added to the MDSC-seeded wells prior to migration. The test concentrations of SX-682 were 0.1, 1 and 10 μM, and the DMSO concentration was <1%.
# [6] = system: C3Tag mouse model of breast cancer; assay: C3Tag mouse model of breast cancer; type: in vivo
# Description: The C31-T-antigen (C3Tag) mouse model is a validated model of human triple-negative basal cell breast cancer as shown by gene expression analysis (Maroulakou, 1994, Proc Natl Acad Sci, 91:11236-40, herein incorporated by reference). The expressed large T-antigen binds and inactivates the RB and p53 tumor suppressor genes, explaining why this model faithfully recapitulates human basal breast cancer, which also harbors RB and p53 inactivation. This model also has frequent K-Ras amplification and infrequent Ras mutations. Treatment regimens were started following tumor manifestation. SX-682 was given orally via medicated feed, at an approximate dose of 10 mg/day/mouse. CP was administered once weekly via intraperitoneal injection at a dose of 50 mg/kg.
# [7] = system: TRIA mouse model of melanoma; assay: TRIA mouse model of melanoma
# [8] = system: B16-F10 syngeneic mouse model of melanoma; assay: B16-F10 syngeneic mouse model of melanoma; type: in vivo
# Procedure: The B16-F10 mouse model is an established model of melanoma, Overwijk, 2001, CURR PROTOC IMMUNOL, Chapter 20: Units 20-21 (herein incorporated by reference), which was used to evaluate the effect of SX-682 alone and in combination with anti-PD1 antibody. B16-F10 mouse melanoma cells were cultured, then mice were injected with 0.5×10^6 B16-F10 cells on day 0, and treatment was initiated on day 18. Mice were treated with vehicle (control), SX-682 alone (50 mg/kg twice daily, oral), anti-PD-1 alone (100 μg twice weekly, i.p.), or SX-682 in combination with anti-PD-1 (N=4-5 per cohort). SX-682 was used as a spray dried dispersion (Formulation Example 1), and was administered to mice via oral gavage as a suspension in 0.5% aq. methylcellulose. […] Data and error bars are the mean±SE.
# [9] = SX-682 50 mg/kg twice daily oral + anti-PD-1 100 μg twice weekly i.p.
# [10] = SX-682 10 mg/day/mouse oral feed + CP 50 mg/kg weekly i.p.
compound,measurement,setting,value
"O=C(Nc1ccc(F)cc1)c1cnc(SCc2cc(OC(F)(F)F)ccc2B(O)O)nc1 [SX-682, 2-(2-boronic acid-5-trifluoromethoxy-benzylsulfanyl)-pyrimidine-5-carboxylic acid (4-fluoro-phenyl)-amide]","prostate weight (tumor burden), SX-682 alone",[1]; 50 mg/kg b.i.d. oral gavage,inhibited prostate cancer
same,"prostate weight (tumor burden), SX-682 plus ICB",[1]; SX-682 50 mg/kg b.i.d. oral + anti-PD1 and anti-CTLA4 200 μg each 3×/week,significantly better than control or either treatment alone
same,"tumor growth, SX-682 monotherapy","[2]; 50 mg/kg twice daily, oral",significantly slowed tumor growth
same,"tumor growth, SX-682 in combination with anti-PD-1",[2]; [9],significantly better than either therapy alone
same,"survival, SX-682 in combination with anti-PD-1","[2]; vs vehicle or anti-PD-1 alone, up to 66 days",significantly enhanced survival
same,time inhibition of calcium flux is sustained after washout,[3],at least 12 hours
same,"tumor volume, SX-682 alone","[4]; 10 mg/day/mouse oral, 1-2 weeks",effective therapy
same,"tumor growth, SX-682 added to carboplatin",[4]; [10],significantly reduced tumor growth
same,GROα-mediated MDSC migration,[5],effectively inhibit GROα-mediated MDSC migration in a dose-dependent manner
same,"tumor growth vs untreated controls, SX-682 alone",[6]; 10 mg/day/mouse oral feed,significantly reduced tumor growth
same,"median survival, SX-682 combined with CP",[6]; [10],> 60 days
same,"tumor growth vs untreated controls, SX-682 in combination with carboplatin",[6]; [10],significantly reduced tumor growth
same,"median survival, single agent","[6]; SX-682 10 mg/day/mouse oral, carboplatin 50 mg/kg weekly i.p., vehicle 18 days",28 days
same,"tumor growth, SX-682 alone",[7]; 10 mg/day/mouse oral feed,significantly slowed tumor growth
same,"complete remission (zero tumor volume), SX-682 combination with CP",[7]; [10],5 of 11
same,"tumor growth, SX-682 monotherapy","[8]; 50 mg/kg twice daily, oral",significantly slowed tumor growth
same,"tumor growth, SX-682 in combination with anti-PD-1",[8]; [9],significantly better than either therapy alone

# Reference: US10561676B2, “Method for treating cancer using dual antagonists of CXCR1 and CXCR2” (Syntrix Biosystems, Inc., priority 2018, dated 2020)
